# Read-outs that look alike come from different tables or passages of the source.
# Legend:
# β-lactamase enzyme RTEM = details: cited from earlier work
# [1] = Storage stability of free acid; format: physicochemical; details: 23° C., seven days
# Hygroscopicity = format: physicochemical; details: listed as 2β-chloromethyl-2α-methylpenam-3α-carboxylic acid sulfone
# [2] = Blood levels after oral administration to mice (Table 4); format: in vivo; details: mouse; for concentration at […]: assay organism S. aureus A-9606, read-out: Blood level
# [3] = Blood levels and half-life of BL-P2024 after oral administration of various doses to mice (Table 5); format: in vivo; details: mouse; for concentration at 0.5 h: 30 min; for concentration at 2 h: 120 min; for concentration at 1 h: 60 min
# [4] = system: β-lactamase producing strains of S. aureus; experiment: Therapeutic efficacy of amoxicillin in combinations with BL-P2024 in infected mice (Table 7); format: in vivo; details: Staphylococcus aureus, po, read-out: PD50/Treatment
# [5] = system: β-lactamase producing strains of E. coli; experiment: as above; format: in vivo; details: oral
# in vivo = experiment: in vivo; parameters: species or system mice; details: mouse, blood, po, 100 mg/kg, Test 2, oral 100 mg/kg, 60 min; read-out: Blood level
# Description: Compounds prepared in 5% Propylene Glycol & TweenCMC-H2 O.
# Values in parentheses are 95% confidence limits.
# Assay Organism: E. coli A9675 (pH = 6.6, 0.1% inoculum)
# β-lactamase = details: cited from earlier work
# bacteria = details: cited from earlier work
# [6] = system: β-lactamase-producing strains; details: in vitro and in vivo; cited from earlier work
# [7] = oral 25 mg/kg, read-out: Blood level
# [8] = oral 50 mg/kg, read-out: Blood level
# [9] = oral 100 mg/kg, read-out: Blood level
# [10] = oral 200 mg/kg, assay organism S. aureus A9606, read-out: Blood level
smiles,measurement,setting,value
"CC1(C)[C@H](C(=O)O)N2C(=O)C(Br)[C@H]2S1(=O)=O (stereo partly drawn) [(2S,5R,6S)-6β-Bromo-3,3-dimethyl-7-oxo-4-thia-1-azabicyclo[3.2.0]heptane-2-carboxylic acid, S,S-dioxide]",inhibition of RTEM,β-lactamase enzyme RTEM,inhibit the action of the β-lactamase enzyme RTEM
"CC1(CCl)C(C(=O)O)N2C(=O)CC2S1(=O)=O (stereo not drawn) [BL-P2013 free acid, 2β-chloromethyl-2α-methylpenam-3α-carboxylic acid sulfone]",storage stability,[1],unstable
same,hygroscopicity,Hygroscopicity,hygroscopic
"CC(C)(C)C(=O)OCOC(=O)C1N2C(=O)CC2S(=O)(=O)C1(C)CCl (stereo not drawn) [BL-P2024, Pivaloyloxymethyl 2β-Chloromethyl-2α-methylpenam-3α-carboxylate Sulfone]",concentration at […],"[2]; 100 mg/kg, oral 100 mg/kg, 15 min",13100 ng/mL
same,half-life,"[2]; 100 mg/kg, oral 100 mg/kg, assay organism E. coli A-9675",1.17 h
same,half-life,"[2]; 100 mg/kg, oral 100 mg/kg, assay organism S. aureus A-9606",1 h
same,concentration at […],"[2]; 200 mg/kg, oral 200 mg/kg, 150 min",> 2500 ng/mL
same,half-life,"[2]; 200 mg/kg, oral 200 mg/kg, assay organism S. aureus A-9606",1 h
same,half-life,[3]; oral 25 mg/kg,0.667 h
same,concentration at […],"[3]; oral 25 mg/kg, 15 min, read-out: Blood level",5900 ng/mL
same,concentration at 0.5 h,[3]; [7],6200 ng/mL
same,concentration at […],"[3]; oral 25 mg/kg, 90 min, read-out: Blood level",1900 ng/mL
same,concentration at 2 h,[3]; [7],1300 ng/mL
same,concentration at […],"[3]; oral 25 mg/kg, 150 min, read-out: Blood level",700 ng/mL
same,half-life,[3]; oral 50 mg/kg,1 h
same,concentration at […],"[3]; oral 50 mg/kg, 15 min, read-out: Blood level",7700 ng/mL
same,concentration at 0.5 h,[3]; [8],9500 ng/mL
same,concentration at 1 h,[3]; [8],6300 ng/mL
same,concentration at […],"[3]; oral 50 mg/kg, 90 min, read-out: Blood level",4700 ng/mL
same,concentration at […],"[3]; oral 50 mg/kg, 150 min, read-out: Blood level",2300 ng/mL
same,half-life,[3]; oral 100 mg/kg,1.42 h
same,concentration at […],"[3]; oral 100 mg/kg, 15 min, read-out: Blood level",12300 ng/mL
same,concentration at 0.5 h,[3]; [9],12200 ng/mL
same,concentration at 1 h,[3]; [9],9400 ng/mL
same,concentration at […],"[3]; oral 100 mg/kg, 90 min, read-out: Blood level",7200 ng/mL
same,concentration at 2 h,[3]; [9],5700 ng/mL
same,concentration at […],"[3]; oral 100 mg/kg, 150 min, read-out: Blood level",4600 ng/mL
same,concentration at […],"[3]; oral 200 mg/kg, 15 min, assay organism S. aureus A9606, read-out: Blood level",14700 ng/mL
same,concentration at 0.5 h,[3]; [10],14400 ng/mL
same,concentration at 1 h,[3]; [10],9800 ng/mL
same,concentration at […],"[3]; oral 200 mg/kg, 90 min, assay organism S. aureus A9606, read-out: Blood level",8700 ng/mL
same,concentration at 2 h,[3]; [10],5100 ng/mL
same,half-life,"[3]; oral 200 mg/kg, assay organism S. aureus A9606",1 h
same,ED50,"[4]; S. aureus A15091, challenge 5 × 10^8, vehicle TCMC",> 200 mg/kg
same,ED50,"[4]; S. aureus A20379, challenge 5 × 10^8, vehicle TCMC",200 mg/kg
same,PD50/Treatment,"[5]; E. coli A9675, challenge 6 × 10^5, vehicle TCMC",> 200 mg/kg
same,PD50/Treatment,"[5]; E. coli A9675, challenge 7 × 10^5, vehicle 50% DMSO",> 25 mg/kg
same,PD50/Treatment,"[5]; E. coli A9675, challenge 7 × 10^5, vehicle TCMC",> 25 mg/kg
same,PD50/Treatment,"[5]; E. coli A9675, challenge 9 × 10^5, vehicle 50% DMSO",> 25 mg/kg
same,concentration at 1 h,in vivo,7800 ng/mL
CC1(C)[C@H](C(=O)O)N2C(=O)C[C@H]2S1(=O)=O [CP-45899],β-lactamase inhibition,β-lactamase,irreversibly acting β-lactamase inhibitor
same,antibacterial activity,bacteria,weak antibacterial activity
same,potentiation of ampicillin,[6],potentiates the in vitro and in vivo activities of ampicillin

# From patent US4340539A, “Derivatives of 6-bromo penicillanic acid” (priority 1980, dated 1982)
